Laboratory results as given in ChEMBL document CHEMBL1909570, “Synthesis and antibacterial activity of N4-mono alkyl derivatives of novel glycopeptide LYV07ww01” (2011).
Converted amounts (≈) assume the structure as drawn.

Assays:
Format in all cases: functional
[1] = tested on: Staphylococcus epidermidis; experiment: Antibacterial activity against Staphylococcus epidermidis 26069 by CLSI agar microdilution method
Streptococcus pneumoniae [2] = experiment: Antibacterial activity against Streptococcus pneumoniae 31002 by CLSI agar microdilution method
Streptococcus = experiment: Antibacterial activity against Streptococcus gamma 32206 by CLSI agar microdilution method
Staphylococcus = experiment: Antibacterial activity against Staphylococcus albus 26101 by CLSI agar microdilution method
Enterococcus faecium [3] = experiment: Antibacterial activity against Enterococcus faecium 32220 by CLSI agar microdilution method
Staphylococcus aureus = experiment: Antibacterial activity against Staphylococcus aureus 26003 by CLSI agar microdilution method
Enterococcus faecium [4] = experiment: Antibacterial activity against vancomycin-resistant Enterococcus faecium MEFA 0039 by CLSI agar microdilution method
Enterococcus faecalis [5] = experiment: microbe, parasite or virus in culture; conditions: ATCC 51299
Description: Antibacterial activity against vancomycin-resistant Enterococcus faecalis ATCC 51299 by CLSI agar microdilution method

Enterococcus faecalis [6] = experiment: microbe, parasite or virus in culture; conditions: ATCC 29212
Description: Antibacterial activity against vancomycin-sensitive Enterococcus faecalis ATCC 29212 by CLSI agar microdilution method

Enterococcus faecium [7] = experiment: Antibacterial activity against vancomycin-sensitive Enterococcus faecium ATCC 35667 by CLSI agar microdilution method
Streptococcus pneumoniae [8] = experiment: Antibacterial activity against penicillin-resistant Streptococcus pneumoniae MSPN 0003 by CLSI broth microdilution method
Streptococcus pneumoniae [9] = experiment: Antibacterial activity against penicillin-intermediate Streptococcus pneumoniae ATCC 49619 by CLSI broth microdilution method

MIC [1] [µg/mL]	MIC (Streptococcus pneumoniae [2]) [µg/mL]	MIC (Streptococcus) [µg/mL]	MIC (Staphylococcus) [µg/mL]	MIC (Enterococcus faecium [3]) [µg/mL]	MIC (Staphylococcus aureus) [µg/mL]	Compound	MIC (Enterococcus faecium [4]) [µg/mL]	MIC (Enterococcus faecalis [5]) [µg/mL]	MIC (Enterococcus faecalis [6]) [µg/mL]	MIC (Enterococcus faecium [7]) [µg/mL]	MIC (Streptococcus pneumoniae [8]) [µg/mL]	MIC (Streptococcus pneumoniae [9]) [µg/mL]
> 25	0.39 (≈ 0.229 µM)	1.56 (≈ 0.915 µM)	3.13 (≈ 1.84 µM)	1.56 (≈ 0.915 µM)	3.13 (≈ 1.84 µM)	CCCCCCCCN[C@@]1(C)C[C@H](O[C@H]2[C@H](Oc3c4cc5cc3Oc3ccc(cc3Cl)[C@@H](O[C@H]3C[C@](C)(N)[C@H](O)[C@H](C)O3)[C@@H]3NC(=O)[C@H](NC(=O)[C@@H]5NC(=O)[C@H](CC(N)=O)NC(=O)[C@H](NC(=O)[C@@H](CC(C)C)NC)[C@H](O)c5ccc(c(Cl)c5)O4)c4ccc(O)c(c4)-c4c(O)cc(O)cc4[C@H](C(=O)O)NC3=O)O[C@H](CO)[C@@H](O)[C@@H]2O)O[C@@H](C)[C@H]1O						
> 25	1.56 (≈ 0.908 µM)	1.56 (≈ 0.908 µM)	6.25 (≈ 3.64 µM)	> 25	3.13 (≈ 1.82 µM)	CCCCCCCCCN[C@@]1(C)C[C@H](O[C@H]2[C@H](Oc3c4cc5cc3Oc3ccc(cc3Cl)[C@@H](O[C@H]3C[C@](C)(N)[C@H](O)[C@H](C)O3)[C@@H]3NC(=O)[C@H](NC(=O)[C@@H]5NC(=O)[C@H](CC(N)=O)NC(=O)[C@H](NC(=O)[C@@H](CC(C)C)NC)[C@H](O)c5ccc(c(Cl)c5)O4)c4ccc(O)c(c4)-c4c(O)cc(O)cc4[C@H](C(=O)O)NC3=O)O[C@H](CO)[C@@H](O)[C@@H]2O)O[C@@H](C)[C@H]1O						
> 25	6.25 (≈ 3.61 µM)	6.25 (≈ 3.61 µM)	6.25 (≈ 3.61 µM)	> 25	6.25 (≈ 3.61 µM)	CCCCCCCCCCN[C@@]1(C)C[C@H](O[C@H]2[C@H](Oc3c4cc5cc3Oc3ccc(cc3Cl)[C@@H](O[C@H]3C[C@](C)(N)[C@H](O)[C@H](C)O3)[C@@H]3NC(=O)[C@H](NC(=O)[C@@H]5NC(=O)[C@H](CC(N)=O)NC(=O)[C@H](NC(=O)[C@@H](CC(C)C)NC)[C@H](O)c5ccc(c(Cl)c5)O4)c4ccc(O)c(c4)-c4c(O)cc(O)cc4[C@H](C(=O)O)NC3=O)O[C@H](CO)[C@@H](O)[C@@H]2O)O[C@@H](C)[C@H]1O						

The remaining lines, values behind:

Compound	MIC [1] [µg/mL]	MIC (Streptococcus pneumoniae [2]) [µg/mL]	MIC (Streptococcus) [µg/mL]	MIC (Staphylococcus) [µg/mL]	MIC (Enterococcus faecium [3]) [µg/mL]	MIC (Staphylococcus aureus) [µg/mL]	MIC (Enterococcus faecium [4]) [µg/mL]	MIC (Enterococcus faecalis [5]) [µg/mL]	MIC (Enterococcus faecalis [6]) [µg/mL]	MIC (Enterococcus faecium [7]) [µg/mL]	MIC (Streptococcus pneumoniae [8]) [µg/mL]	MIC (Streptococcus pneumoniae [9]) [µg/mL]
CCCCCCCCCCNCCN[C@@]1(C)C[C@H](O[C@H]2[C@H](Oc3c4cc5cc3Oc3ccc(cc3Cl)[C@@H](O[C@H]3C[C@](C)(N)[C@H](O)[C@H](C)O3)[C@@H]3NC(=O)[C@H](NC(=O)[C@@H]5NC(=O)[C@H](CC(N)=O)NC(=O)[C@H](NC(=O)[C@@H](CC(C)C)NC)[C@H](O)c5ccc(c(Cl)c5)O4)c4ccc(O)c(c4)-c4c(O)cc(O)cc4[C@H](C(=O)O)NC3=O)O[C@H](CO)[C@@H](O)[C@@H]2O)O[C@@H](C)[C@H]1O	> 25	3.13 (≈ 1.76 µM)	3.13 (≈ 1.76 µM)	6.25 (≈ 3.52 µM)	12.5 (≈ 7.04 µM)	6.25 (≈ 3.52 µM)						
CN[C@H](CC(C)C)C(=O)N[C@H]1C(=O)N[C@@H](CC(N)=O)C(=O)N[C@H]2C(=O)N[C@H]3C(=O)N[C@H](C(=O)N[C@@H](C(=O)O)c4cc(O)cc(O)c4-c4cc3ccc4O)[C@H](O[C@H]3C[C@](C)(N)[C@H](O)[C@H](C)O3)c3ccc(c(Cl)c3)Oc3cc2cc(c3O[C@@H]2O[C@H](CO)[C@@H](O)[C@H](O)[C@H]2O[C@H]2C[C@](C)(NC/C=C/c3ccccc3)[C@H](O)[C@H](C)O2)Oc2ccc(cc2Cl)[C@H]1O	> 25	1.56 (≈ 0.913 µM)	1.56 (≈ 0.913 µM)	3.13 (≈ 1.83 µM)	3.13 (≈ 1.83 µM)	3.13 (≈ 1.83 µM)						
CN[C@H](CC(C)C)C(=O)N[C@H]1C(=O)N[C@@H](CC(N)=O)C(=O)N[C@H]2C(=O)N[C@H]3C(=O)N[C@H](C(=O)N[C@@H](C(=O)O)c4cc(O)cc(O)c4-c4cc3ccc4O)[C@H](O[C@H]3C[C@](C)(N)[C@H](O)[C@H](C)O3)c3ccc(c(Cl)c3)Oc3cc2cc(c3O[C@@H]2O[C@H](CO)[C@@H](O)[C@H](O)[C@H]2O[C@H]2C[C@](C)(NCc3cccs3)[C@H](O)[C@H](C)O2)Oc2ccc(cc2Cl)[C@H]1O	> 25	6.25 (≈ 3.7 µM)	25 (≈ 14.8 µM)	> 25	12.5 (≈ 7.4 µM)	25 (≈ 14.8 µM)						
CN[C@H](CC(C)C)C(=O)N[C@H]1C(=O)N[C@@H](CC(N)=O)C(=O)N[C@H]2C(=O)N[C@H]3C(=O)N[C@H](C(=O)N[C@H](C(=O)O)c4cc(O)cc(O)c4-c4cc3ccc4O)[C@H](O)c3ccc(c(Cl)c3)Oc3cc2cc(c3O[C@@H]2O[C@H](CO)[C@@H](O)[C@H](O)[C@H]2O[C@H]2C[C@](C)(N)[C@H](O)[C@H](C)O2)Oc2ccc(cc2Cl)[C@H]1O.Cl [VANCOMYCIN HYDROCHLORIDE]	> 25	0.39	6.25	3.13	6.25	0.78	> 32	8	1	0.25	0.25	0.125
